Assay: photoluminescence quantum yield (fraction); solvent given as SMILES

SMILES: F[B-]1(F)n2c(/C=C/c3ccc(C(=C(c4ccccc4)c4ccccc4)c4ccccc4)cc3)ccc2C(c2ccccc2)=C2C=CC(/C=C/c3ccc(C(=C(c4ccccc4)c4ccccc4)c4ccccc4)cc3)=[N+]21
- photoluminescence quantum yield (in C1CCOC1): 0.42

SMILES: CN(C)c1ccc(-c2c(/C=C3/C=Cc4ccccc4N3Cc3ccccc3)c(=O)c2=O)cc1
- photoluminescence quantum yield (in C1CCCCC1): 0.0146
- photoluminescence quantum yield (in Cc1ccccc1): 0.0141
- photoluminescence quantum yield (in ClCCl): 0.001

SMILES: O=C1c2ccc(N(c3ccc(-c4ccccc4)cc3)c3ccc(-c4ccccc4)cc3)cc2C(=O)c2ccc(N(c3ccc(-c4ccccc4)cc3)c3ccc(-c4ccccc4)cc3)cc21
- photoluminescence quantum yield (in Cc1ccccc1): 0.1
- photoluminescence quantum yield (in c1ccc2c(c1)c1ccccc1n2-c1ccc(-c2ccc(-n3c4ccccc4c4ccccc43)cc2)cc1): 0.42

SMILES: COc1ccc(/C=C/c2nc(-c3ccc([N+](=O)[O-])cc3)[nH]c2/C=C/c2ccc(OC)cc2)cc1
- photoluminescence quantum yield (in ClCCl): 0

SMILES: c1ccc(-c2cc(-c3ccc(-c4nc(-c5ccccn5)c(-c5ccccn5)[nH]4)cc3)cc(-c3ccccn3)n2)nc1
- photoluminescence quantum yield (in C1CCOC1): 0.06
- photoluminescence quantum yield (in CC#N): 0.08
- photoluminescence quantum yield (in CC(C)=O): 0.201
- photoluminescence quantum yield (in CCCCCC): 0.006
- photoluminescence quantum yield (in CCO): 0.202
- photoluminescence quantum yield (in CCOC(C)=O): 0.153
- photoluminescence quantum yield (in CN(C)C=O): 0.135
- photoluminescence quantum yield (in CO): 0.078
- photoluminescence quantum yield (in CS(C)=O): 0.111
- photoluminescence quantum yield (in ClC(Cl)Cl): 0.13
- photoluminescence quantum yield (in ClCCl): 0.145
- photoluminescence quantum yield (in O): 0.045

SMILES: COc1cc(OC)cc(C(=O)OCc2c(C)c(=O)n3c(=O)c(C)c(C)n23)c1
- photoluminescence quantum yield (in CCO): 0.638

SMILES: CCn1c2ccccc2oc2c(C#N)c3oc4ccccc4oc3c(C#N)c21
- photoluminescence quantum yield (in ClC(Cl)Cl): 0.34

SMILES: CC(C)[Si](C#Cc1c2nsnc2c(C#C[Si](C(C)C)(C(C)C)C(C)C)c2nc3c(nc12)C1c2ccccc2C3c2ccccc21)(C(C)C)C(C)C
- photoluminescence quantum yield (in CCCCCC): 0.66

SMILES: Cc1c2ccc3c(C)[n+](C)ccc3c2cc[n+]1C
- photoluminescence quantum yield (in CC#N): 0.38

SMILES: O=C(c1ccc(-n2c3ccc(-c4ccccc4)cc3c3cc(-c4ccccc4)ccc32)cc1)c1ccc(-n2c3ccc(-c4ccccc4)cc3c3cc(-c4ccccc4)ccc32)cc1
- photoluminescence quantum yield (in Cc1ccccc1): 0.153

SMILES: c1ccc(-c2nc(-c3cccs3)[nH]c2-c2ccccc2)cc1
- photoluminescence quantum yield (in CC#N): 0.39

SMILES: Oc1c(-c2ccco2)cccc1-c1nc2ccccc2s1
- photoluminescence quantum yield (in CCO): 0.0057
- photoluminescence quantum yield (in ClCCl): 0.0137
- photoluminescence quantum yield (in O): 0.01

SMILES: C=C(C)C(CN1C(=O)c2cccc3cccc(c23)C1=O)OO (stereo unspecified)
- photoluminescence quantum yield (in CCO): 0.002

SMILES: CCCCN1c2ccccc2Sc2cc(/C=C\c3cc(=O)oc4ccc(C)cc34)ccc21
- photoluminescence quantum yield (in ClC(Cl)Cl): 0.7

SMILES: Cc1ccc2nc3[nH]c(=O)[nH]c(=O)c3nc2c1
- photoluminescence quantum yield (in CC#N): 0.025
- photoluminescence quantum yield (in ClCCCl): 0.034

SMILES: CCn1c2ccc(-c3ccc(-c4cccs4)s3)cc2c2cc(-c3ccc(-c4cccs4)s3)ccc21
- photoluminescence quantum yield (in ClCCl): 0.168

SMILES: CC(C)(C)c1ccc2c(c1)c1cc(C(C)(C)C)ccc1n2-c1cccc(-c2nc(-c3cccc(-n4c5ccc(C(C)(C)C)cc5c5cc(C(C)(C)C)ccc54)c3)nc(-c3cccc(P(=O)(c4ccccc4)c4ccccc4)c3)n2)c1
- photoluminescence quantum yield (in O=P(c1ccccc1)(c1ccccc1)c1ccccc1Oc1ccccc1P(=O)(c1ccccc1)c1ccccc1): 0.55

SMILES: COc1ccc(/N=N/c2c(O)c3ccccc3n(C)c2=O)c(S(=O)(=O)O)c1
- photoluminescence quantum yield (in CS(C)=O): 0.03

SMILES: COc1ccc(C#Cc2ccc(C#N)cc2)cc1OC
- photoluminescence quantum yield (in C1COCCO1): 0.16
- photoluminescence quantum yield (in CC#N): 0.13
- photoluminescence quantum yield (in CCCCCC): 0.16
- photoluminescence quantum yield (in CCCCCCC): 0.16
- photoluminescence quantum yield (in CCCO): 0.13
- photoluminescence quantum yield (in CCOC(C)=O): 0.13
- photoluminescence quantum yield (in CS(C)=O): 0.21
- photoluminescence quantum yield (in ClC(Cl)Cl): 0.18
- photoluminescence quantum yield (in ClCCl): 0.22

SMILES: Cc1cc(C)c(C2=C3C=C(/C=C/C(=O)OC(C)(C)C)C=[N+]3[B-](F)(F)n3cc(/C=C/C(=O)OC(C)(C)C)cc32)c(C)c1
- photoluminescence quantum yield (in ClCCl): 0.4

SMILES: C(=C\c1ncnc2ccccc12)/c1ccc(N(c2ccccc2)c2ccccc2)cc1
- photoluminescence quantum yield (in ClCCl): 0.25
